This note sets out measurements from US11453683B1, “KRas G12D inhibitors” (Mirati Therapeutics, Inc., priority 2019, dated 2022).

By pIC50 is commonly meant the IC50 on a negative log10 scale, so that one unit is a factor of ten. Read a low pIC50 as a high IC50.

Each structure is given as a SMILES string. pIC50: −log10 of the molar value. Structures can show the parent of a compound that is named as a salt.

The assay deals with KRas G12D-mediated phosphorylation of ERK. Nature of the assay: Inhibition of KRas G12D-mediated phosphorylation of ERK in AGS cells. The following applies: Homo sapiens; AGS cells expressing G12D, 3 hours, phospho-ERK normalized to GAPDH. It is filed as cell-based. How it is done: Cells were plated in tissue culture treated 96 well plates at a density of 40,000 cells/well and allowed to attach for 12-14 hours. Diluted compounds were then added in a final concentration of 0.5% DMSO. After 3 hours, the medium was removed, 150 μL of 4.0% formaldehyde was added and the plates incubated at room temperature for 20 minutes. The plates were washed with PBS, and permeabilized with 150 μL of ice cold 100% methanol for 10 minutes. Non-specific antibody binding to the plates was blocked using 100 μL Licor blocking buffer (Li-Cor Biotechnology, Lincoln Nebr.) for 1 hour at room temperature.
The amount of phospho-ERK was determined using an antibody specific for the phosphorylated form of ERK and compared to the amount of GAPDH. Primary antibodies used for the detection were added as follows: Phospho-ERK (Cell Signaling cs-9101) diluted 1:500 and GAPDH (Millipore MAB374) diluted 1:5000 in Licor block+0.05% Tween 20. The plates were incubated for 2 hours at room temperature. The plates were washed with PBS+0.05% Tween 20.
Secondary antibodies used to visualize primary antibodies were added as follows: Anti-rabbit-680 diluted 1:1000 and Anti-mouse-800 diluted 1:1000 both in Licor block+0.05% TweeN2O, and were incubated for 1 hour at room temperature. The plates were washed with PBS+0.05% Tween 20. A 100 μL aliquot of PBS was added to each well and the plates were read on a Li-Cor Odyssey CLX plate reader.
The phospho-ERK (Thr202/Tyr204 signal was normalized to the GAPDH signal for each well and percent of DMSO control values were calculated. IC50 values were generated using a 4-parameter fit of the dose response curve

`Cc1cc(-c2ncc3c(N4C[C@H]5CC[C@@H](C4)N5)nc(OCC45CCCN4CCC5)nc3c2F)c2c(Cl)cccc2c1` [Example 175, 4-((1R,5S)-3,8-diazabicyclo[3.2.1]octan-3-yl)-7-(8-chloro-3-methylnaphthalen-1-yl)-8-fluoro-2-((hexahydro-1H-pyrrolizin-7a-yl)methoxy)pyrido[4,3-d]pyrimidine] gave a pIC50 below 5.26.

For the molecule `CC(C)c1ccc(O)cc1-c1ncc2c(N3C[C@H]4CC[C@@H](C3)N4)nc(OCC34CCCN3CCC4)nc2c1F` [Example 403, 3-(4-((1R,5S)-3,8-diazabicyclo[3.2.1]octan-3-yl)-8-fluoro-2-((tetrahydro-1H-pyrrolizin-7a(5H)-yl)methoxy)pyrido[4,3-d]pyrimidin-7-yl)-4-isopropylphenol], the pIC50 is 5.54. Molecule `Cc1ccc2cccc(-c3ncc4c(N5C[C@H]6CC[C@@H](C5)N6)nc(OC[C@@H]5CCCN5C)nc4c3F)c2c1` [Example 321, 4-((1R,5S)-3,8-diazabicyclo[3.2.1]octan-3-yl)-8-fluoro-7-(7-methylnaphthalen-1-yl)-2-(((S)-1-methylpyrrolidin-2-yl)methoxy)pyrido[4,3-d]pyrimidine] showed a pIC50 below 4.78. Consider `Oc1ccc(OC(F)(F)F)c(-c2ncc3c(N4C[C@H]5CC[C@@H](C4)N5)nc(OCC45CCCN4CCC5)nc3c2F)c1` [Example 341, 3-(4-((1R,5S)-3,8-diazabicyclo[3.2.1]octan-3-yl)-8-fluoro-2-((tetrahydro-1H-pyrrolizin-7a(5H)-yl)methoxy)pyrido[4,3-d]pyrimidin-7-yl)-4-(trifluoromethoxy)phenol], for which the negative logarithm of the IC50 (pIC50) is 6.08.

`O=C1OCCN1C[C@H]1CC[C@@]2(COc3nc(N4CC5CCC(C4)N5)c4cnc(-c5cccc6cccc(Cl)c56)c(F)c4n3)CCCN12` [Example 442, 3-(((3R,7aR)-7a-(((4-(3,8-diazabicyclo[3.2.1]octan-3-yl)-7-(8-chloronaphthalen-1-yl)-8-fluoropyrido[4,3-d]pyrimidin-2-yl)oxy)methyl)hexahydro-1H-pyrrolizin-3-yl)methyl)oxazolidin-2-one] showed a pIC50 of 5.93. This pIC50 and that of the molecule before are within 0.2 log units of each other. The result for `CN1C[C@H](OC(=O)NCCOCc2ccc(O)cc2)C[C@H]1COc1nc(N2C[C@H]3CC[C@@H](C2)N3)c2cnc(-c3cccc4cccc(Cl)c34)c(F)c2n1` [Example 260, (3R,5S)-5-(((4-((1R,5S)-3,8-diazabicyclo[3.2.1]octan-3-yl)-7-(8-chloronaphthalen-1-yl)-8-fluoropyrido[4,3-d]pyrimidin-2-yl)oxy)methyl)-1-methylpyrrolidin-3-yl (2-((4-hydroxybenzyl)oxy)ethyl)carbamate] reads below 4.78.

In the case of `C#Cc1cccc2cncc(-c3ncc4c(N5C[C@H]6CC[C@@H](C5)N6)nc(OC[C@]56CCCN5C[C@@H](F)C6)nc4c3F)c12` [Example 204, 4-((1R,5S)-3,8-diazabicyclo[3.2.1]octan-3-yl)-7-(5-ethynylisoquinolin-4-yl)-8-fluoro-2-(((2S,7aR)-2-fluorotetrahydro-1H-pyrrolizin-7a(5H)-yl)methoxy)pyrido[4,3-d]pyrimidine], the negative-log IC50 (pIC50) is 6.51. `N#Cc1cccc2cccc(-c3ncc4c(N5C[C@H]6CC[C@@H](C5)N6)nc(OCC56CCCN5CCC6)nc4c3F)c12` [Example 198, 8-(4-((1R,5S)-3,8-diazabicyclo[3.2.1]octan-3-yl)-8-fluoro-2-((tetrahydro-1H-pyrrolizin-7a(5H)-yl)methoxy)pyrido[4,3-d]pyrimidin-7-yl)-1-naphthonitrile]: the pIC50 is 5.62. As for `C#Cc1cccc2cc(OC)cc(-c3ncc4c(N5C[C@H]6CC[C@@H](C5)N6)nc(OCC56CCCN5CCC6)nc4c3F)c12` [Example 231, 4-((1R,5S)-3,8-diazabicyclo[3.2.1]octan-3-yl)-7-(8-ethynyl-3-methoxynaphthalen-1-yl)-8-fluoro-2-((hexahydro-1H-pyrrolizin-7a-yl)methoxy)pyrido[4,3-d]pyrimidine], the figure is 5.55. As for `Fc1c(-c2cccc(Cl)c2Cl)ncc2c(N3C[C@H]4CC[C@@H](C3)N4)nc(OCC34CCCN3CCC4)nc12` [Example 277, 4-((1R,5S)-3,8-diazabicyclo[3.2.1]octan-3-yl)-7-(2,3-dichlorophenyl)-8-fluoro-2-((hexahydro-1H-pyrrolizin-7a-yl)methoxy)pyrido[4,3-d]pyrimidine], the figure is 5.43; as for `Oc1ccc(CC(F)(F)F)c(-c2ncc3c(N4C[C@H]5CC[C@@H](C4)N5)nc(OC[C@@]45CCCN4C[C@H](F)C5)nc3c2F)c1` [Example 424, 3-(4-((1R,5S)-3,8-diazabicyclo[3.2.1]octan-3-yl)-8-fluoro-2-(((2R,7aS)-2-fluorohexahydro-1H-pyrrolizin-7a-yl)methoxy)pyrido[4,3-d]pyrimidin-7-yl)-4-(2,2,2-trifluoroethyl)phenol], 6.17; as for `Fc1c(-c2cccc3cccc(Cl)c23)ncc2c(N3CC4CCC(C3)N4)nc(OC[C@]34CCCN3C[C@H](c3ccccc3)C4)nc12` (stereo in doubt) [Example 221, 4-((1R,5S)-3,8-diazabicyclo[3.2.1]octan-3-yl)-7-(8-chloronaphthalen-1-yl)-8-fluoro-2-((2-phenyltetrahydro-1H-pyrrolizin-7a(5H)-yl)methoxy)pyrido[4,3-d]pyrimidine bis-hydrochloride salt], 4.80. As for `Oc1cc(Cl)c(C2CC2)c(-c2ncc3c(N4C[C@H]5CC[C@@H](C4)N5)nc(OC[C@@]45CCCN4C[C@H](F)C5)nc3c2F)c1` [Example 283, 3-(4-((1R,5S)-3,8-diazabicyclo[3.2.1]octan-3-yl)-8-fluoro-2-(((2R,7aS)-2-fluorohexahydro-1H-pyrrolizin-7a-yl)methoxy)pyrido[4,3-d]pyrimidin-7-yl)-5-chloro-4-cyclopropylphenol], the figure is 8.15; as for `Cc1cccc(CCOc2nc(N3C[C@H]4CC[C@@H](C3)N4)c3cnc(-c4cc(O)cc5ccccc45)c(F)c3n2)n1` [Example 87, 4-(4-((1R,5S)-3,8-diazabicyclo[3.2.1]octan-3-yl)-8-fluoro-2-(2-(6-methylpyridin-2-yl)ethoxy)pyrido[4,3-d]pyrimidin-7-yl)naphthalen-2-ol], 4.98. Molecule `CCc1cccc2cncc(-c3ncc4c(N5CC6CCC(C5)N6)nc(OCC56CCCN5C[C@H](F)C6)nc4c3F)c12` (mixture of isomers) [Example 324, 4-((1R,5S)-3,8-diazabicyclo[3.2.1]octan-3-yl)-7-(5-ethylisoquinolin-4-yl)-8-fluoro-2-((2-fluorotetrahydro-1H-pyrrolizin-7a(5H)-yl)methoxy)pyrido[4,3-d]pyrimidine] had a negative-log IC50 (pIC50) of 6.06.

`CN1CCC[C@H]1COc1nc(N2CC3CCC(Cl)(C2)N3)c2cnc(-c3cc(O)cc4ccccc34)c(F)c2n1` (stereo partly drawn) [Example 160, 4-(4-(1-chloro-3,8-diazabicyclo[3.2.1]octan-3-yl)-8-fluoro-2-(((S)-1-methylpyrrolidin-2-yl)methoxy)pyrido[4,3-d]pyrimidin-7-yl)naphthalen-2-ol bis(2,2,2-trifluoroacetate)] gave a pIC50 of 5.16. As to `Fc1c(-c2cccc3cccc(Cl)c23)ncc2c(N3CC4CCC(C3)N4)nc(OCC34CCCN3C[C@H](F)C4)nc12` (stereo partly drawn) [Example 226, 4-((1R,5S)-3,8-diazabicyclo[3.2.1]octan-3-yl)-7-(8-chloronaphthalen-1-yl)-8-fluoro-2-((2-fluorotetrahydro-1H-pyrrolizin-7a(5H)-yl)methoxy)pyrido[4,3-d]pyrimidine bis-hydrochloride], the negative logarithm of the IC50 (pIC50) was 5.17.
